Like-named read-outs stand apart in the source and are kept apart here.
Key:
Assay type in all cases: in vivo
[1] = tested on: Myzus persicae; assay: whole plant or invertebrate
Source text: (§1) If the actual kill rate is greater than that calculated, the kill rate of the combination is superadditive, which means that a synergistic effect is present. In this case, the kill rate actually observed must be greater than the value calculated from the above formula for the expected kill rate (E).
(§2) • 78 parts by weight of acetone • 1.5 parts by weight of dimethylformamide Emulsifier: 0.5 part by weight of alkylaryl polyglycol ether
(§3) To produce an appropriate active ingredient formulation, 1 part by weight of active ingredient is mixed with the stated amounts of solvent and emulsifier, and the concentrate is diluted with emulsifier-containing water to the desired concentration.
After the desired time, the kill in % is determined. 100% means that all aphids have been killed; 0% means that no aphids have been killed. The kill rates determined are entered into Colby's formula.

[2] = tested on: Tetranychus urticae; assay: Tetranychus test (OP-resistant/spray treatment); conditions: for pest or weed control at 4 g/ha / Kill rate in % after 6 d: after 6 d
Source text: (§4) The expected action for a given combination of two active ingredients can be calculated according to S. R. Colby, Weeds 15 (1967), 20-22 as follows:
(§5) • X is the kill rate, expressed in % of the untreated control, in the case of use of active ingredient A in an application rate of m g/ha or in a concentration of m ppm, • Y is the kill rate, expressed in % of the untreated control, in the case of use of active ingredient B in an application rate of n g/ha or in a concentration of n ppm, and • E is the kill rate, expressed in % of the untreated control, in the case of use of active ingredients A and B in application rates of m and n g/ha or in a concentration of m and n ppm, then
as §1, §2, §3
Discs of bean leaves (Phaseolus vulgaris) infested by all stages of the two-spotted spider mite (Tetranychus urticae) are sprayed with an active ingredient formulation of the desired concentration.
After the desired period of time, the effect in % is determined. 100% means that all of the spider mites have been killed; 0% means that none of the spider mites have been killed.

[3] = tested on: Spodoptera frugiperda; assay: whole plant or invertebrate
Source text: as §1, §2, §3
After the desired time, the kill in % is determined. 100% means that all caterpillars have been killed; 0% means that none of the caterpillars have been killed. The kill rates determined are entered into Colby's formula.

[4] = tested on: Phaedon cochleariae; assay: whole plant or invertebrate
Source text: as §4, §5, §1, §2, §3
Cabbage leaves (Brassica oleracea) are treated by spraying with the active ingredient formulation of the desired concentration and populated with larvae of the mustard beetle (Phaedon cochleariae) while the leaves are still moist.
After the desired period of time, the kill rate in % is determined. 100% means that all beetle larvae have been killed; 0% means that none of the beetle larvae have been killed. The kill rates determined are entered into Colby's formula.

[5] = Phaedon cochleariae, 144 h, 4 g/ha, after 6 d, read-out: Kill rate in % after 6 d
[6] = Spodoptera frugiperda, 144 h, 4 g/ha, after 6 d, read-out: Kill rate in % after 6 d
[7] = Tetranychus urticae, 144 h, 4 g/ha, applied individually, read-out: Kill rate in % after 6 d
[8] = Spodoptera frugiperda, 144 h, 0.032 g/ha, after 6 d, read-out: Kill rate in % after 6 d
[9] = Myzus persicae, 144 h, 4 g/ha, after 6 d, read-out: Kill rate in % after 6 d
[10] = Phaedon cochleariae, 144 h, after 6 d, read-out: Kill rate in % after 6 d
[11] = Spodoptera frugiperda, 144 h, 0.8 g/ha, after 6 d, read-out: Kill rate in % after 6 d

## CNC(=O)Oc1cccc2ccccc12 [carbaryl]
[1]; Myzus persicae, 24 h, read-out: Kill rate in % after 1 d
  pest or weed control at 500 g/ha: 0%
[2]; Tetranychus urticae, 48 h, read-out: Kill rate in % after 2 d
  pest or weed control at 500 g/ha: 10%
[2]; Tetranychus urticae, 144 h, read-out: Kill rate in % after 6 d
  pest or weed control at 500 g/ha: 20%
[3]; Spodoptera frugiperda, 144 h, read-out: Kill rate in % after 6 d
  pest or weed control at 4 g/ha: 0%

## FC(F)(F)c1ccc(OCCCOc2c(Cl)cc(OCC=C(Cl)Cl)cc2Cl)nc1 [pyridalyl]
[1]; Myzus persicae, 24 h, 4 g/ha, after 1 d, read-out: Kill rate in % after 1 d
  pest or weed control at 4 g/ha: 0%
[4]; [5]
  pest or weed control at 4 g/ha: 0%
[3]; [6]
  pest or weed control at 4 g/ha: 0%

## CC1(C)[C@H](C(=O)O[C@H](C#N)c2cccc(Oc3ccccc3)c2)[C@@H]1/C=C(\Cl)C(F)(F)F [gamma-cyhalothrin]
[1]; 0.032 g/ha, after 1 d
  Kill rate in % after 1 d: 0%
[2]; 0.8 g/ha, after 2 d, applied individually
  Kill rate in % after 2 d: 0%
[3]; 0.032 g/ha
  Kill rate in % after 2 d: 17%

## CC1(C)[C@H](C(=O)O[C@H](C#N)c2cccc(Oc3ccccc3)c2)[C@@H]1/C=C(\Cl)C(F)(F)F [L-cyhalothrin]
[1]; Myzus persicae, 24 h, 0.16 g/ha, after 1 d, read-out: Kill rate in % after 1 d
  pest or weed control at 0.16 g/ha: 0%
[2]; [7]
  pest or weed control at 4 g/ha: 20%
[3]; [8]
  pest or weed control at 0.032 g/ha: 0%

## CCc1ccc(C(=O)NN(C(=O)c2cc(C)cc(C)c2)C(C)(C)C)cc1 [tebufenozide]
[1]; [9]
  pest or weed control at 4 g/ha: 0%
[4]; 4 g/ha
  Kill rate in % after 2 d: 0%
[3]; Spodoptera frugiperda, 144 h, 0.16 g/ha, after 6 d, read-out: Kill rate in % after 6 d
  pest or weed control at 0.16 g/ha: 0%

## CCCSP(=O)(OCC)Oc1ccc(Br)cc1Cl (centres unmarked) [profenophos]
[4]; 4 g/ha
  Kill rate in % after 2 d: 0%
[4]; [5]
  pest or weed control at 4 g/ha: 0%
[3]; [6]
  pest or weed control at 4 g/ha: 17%

## spinosad
[2]; 20 g/ha, after 2 d, applied individually
  Kill rate in % after 2 d: 20%
[3]; 0.16 g/ha, after 6 d
  Kill rate in % after 6 d: 0%

## O=S(=O)(CCC(F)=C(F)F)c1ncc(Cl)s1 [fluensulfone]
[2]; 2000 g/ha, after 2 d, applied individually
  Kill rate in % after 2 d: 0%
[3]; 2000 g/ha, after 6 d
  Kill rate in % after 6 d: 0%

## CNC(=O)c1cc(Cl)cc(C)c1NC(=O)c1cc(Br)nn1-c1ncccc1Cl [chloranthraniliprole]
[3]; [8]
  pest or weed control at 0.032 g/ha: 50%

## CCc1nn(C)c(C(=O)NCc2ccc(C(C)(C)C)cc2)c1Cl [tebufenpyrad]
[1]; Myzus persicae, 24 h, 0.8 g/ha, after 1 d, read-out: Kill rate in % after 1 d
  pest or weed control at 0.8 g/ha: 0%
[1]; Myzus persicae, 144 h, 0.16 g/ha, after 6 d, read-out: Kill rate in % after 6 d
  pest or weed control at 0.16 g/ha: 0%
[4]; Phaedon cochleariae, 144 h, 0.16 g/ha, after 6 d, read-out: Kill rate in % after 6 d
  pest or weed control at 0.16 g/ha: 0%
[2]; Tetranychus urticae, 48 h, 0.16 g/ha, after 2 d, applied individually, read-out: Kill rate in % after 2 d
  pest or weed control at 0.16 g/ha: 0%
[2]; [7]
  pest or weed control at 4 g/ha: 40%

## COc1cccc(C(=O)NN(C(=O)c2cc(C)cc(C)c2)C(C)(C)C)c1C [methoxyfenozide]
[1]; [9]
  pest or weed control at 4 g/ha: 0%
[4]; [10]
  pest or weed control at 0.8 g/ha: 0%
[3]; [11]
  pest or weed control at 0.8 g/ha: 0%

## Nc1nc(N)nc(NC2CC2)n1 [cyromazine]
[1]; Myzus persicae, 24 h, 100 g/ha, after 1 d, read-out: Kill rate in % after 1 d
  pest or weed control at 100 g/ha: 0%
[4]; [5]
  pest or weed control at 4 g/ha: 0%
[3]; [6]
  pest or weed control at 4 g/ha: 0%

## O=C(NC(=O)c1c(F)cccc1F)Nc1ccc(OC(F)(F)C(F)OC(F)(F)F)c(Cl)c1 (centres unmarked) [novaluron]
[4]; [10]
  pest or weed control at 0.8 g/ha: 0%
[3]; [11]
  pest or weed control at 0.8 g/ha: 67%

## O=C(NC(=O)c1c(F)cccc1F)Nc1ccc(Oc2ccc(C(F)(F)F)cc2Cl)cc1F [flufenoxuron]
[1]; Myzus persicae, 144 h, 0.8 g/ha, after 6 d, read-out: Kill rate in % after 6 d
  pest or weed control at 0.8 g/ha: 0%
[3]; [11]
  pest or weed control at 0.8 g/ha: 0%

## COC(=O)N(C(=O)N1CO[C@@]2(C(=O)OC)Cc3cc(Cl)ccc3C2=N1)c1ccc(OC(F)(F)F)cc1 [indoxacarb]
[1]; 20 g/ha, after 1 d
  Kill rate in % after 1 d: 0%
[3]; 0.8 g/ha
  Kill rate in % after 2 d: 50%

## abamectin
[1]; 0.16 g/ha, after 1 d
  Kill rate in % after 1 d: 0%
[4]; 0.032 g/ha, after 6 d
  Kill rate in % after 6 d: 0%
[2]; 0.0064 g/ha, applied individually
  Kill rate in % after 6 d: 0%
[2]; 0.032 g/ha, applied individually
  Kill rate in % after 6 d: 80%

## O=C(NC(=O)c1c(F)cccc1F)Nc1cc(Cl)c(OC(F)(F)C(F)C(F)(F)F)cc1Cl (centres unmarked) [lufenuron]
[2]; Tetranychus urticae, 48 h, 100 g/ha, after 2 d, applied individually, read-out: Kill rate in % after 2 d
  pest or weed control at 100 g/ha: 0%
[3]; [11]
  pest or weed control at 0.8 g/ha: 17%

## COCCOC(=O)C(C#N)(C(=O)c1ccccc1C(F)(F)F)c1ccc(C(C)(C)C)cc1 (centres unmarked) [cyflumetofen]
[4]; [5]
  pest or weed control at 4 g/ha: 0%
[3]; [6]
  pest or weed control at 4 g/ha: 17%

## CCC(C)(C)C(=O)OC1=C(c2ccc(Cl)cc2Cl)C(=O)OC12CCCCC2 [spirodiclofen]
[1]; 20 g/ha, after 1 d
  Kill rate in % after 1 d: 0%
[1]; 100 g/ha, after 1 d
  Kill rate in % after 1 d: 0%
[4]; 4 g/ha, after 6 d
  Kill rate in % after 6 d: 0%
[2]; 100 g/ha, after 2 d, applied individually
  Kill rate in % after 2 d: 0%

## Cc1nn(C)c(Oc2ccccc2)c1C=NOCc1ccc(C(=O)OC(C)(C)C)cc1 [fenpyroximate]
[2]; Tetranychus urticae, 48 h, 0.8 g/ha, after 2 d, applied individually, read-out: Kill rate in % after 2 d
  pest or weed control at 0.8 g/ha: 0%
[3]; 0.8 g/ha
  Kill rate in % after 2 d: 0%

## spinetoram
[1]; 0.8 g/ha, after 6 d
  Kill rate in % after 6 d: 0%
[1]; 4 g/ha, after 1 d
  Kill rate in % after 1 d: 0%
[4]; 0.16 g/ha, after 6 d
  Kill rate in % after 6 d: 0%
[2]; 4 g/ha, applied individually
  Kill rate in % after 6 d: 20%
